Test results as given in patent US20200155566A1, “THERAPEUTIC COMBINATION OF A THIRD GENERATION EGFR TYROSINE KINASE INHIBITOR AND A CYCLIN D KINASE INHIBITOR” (Novartis AG, priority 2017, published 2020).

Assays:
[1] = tested on: advanced non-small cell lung cancer (NSCLC) harboring T790M; conditions: patients with advanced NSCLC harboring T790M; cited from earlier work
[2] = tested on: EGFR mutant NSCLC cell lines (PC9, HCC827, HCC4006, MGH707); assay: Long-term viability study (confluence by incucyte zoom, four weeks); format: cell-based
Procedure: PC9 (3,000/well), HCC827 (10,000/well), HCC4006 (5000/well), and MGH707 (5000/well) cells were plated into 96-well plates and the following day treated with EGF816 (300nM) either alone or in combination with LEE011 (1000 nM) for four weeks. Drug was refreshed twice per week. Cell confluence was used as a surrogate for cell number and was measured by an incucyte zoom (Essen Biosciences) at the initiation of treatment and then twice (2x) per week thereafter.

[3] = tested on: EGFR mutant (L858R, exl9del and T790M) cancer models; conditions: cited from earlier work
[4] = tested on: phospho-EGFR (EGFR Y1068); assay: Western blot of phospho-EGFR after 72 hours of treatment; format: cell-based; conditions: PC-14, NCI-H1975, HCC827, HCC4006, immunoblot
Procedure: NCI-H1975 (having mutations L858R, T790M), PC-14 (having mutations ex 19 del or exon 19 deletion), HCC827 (having mutation exl9del) and HCC4006 (having mutation exl9del) cells were cultured in RPMI-1640 growth medium (ATCC, catalog number 20-2001), supplemented with 10% fetal bovine serum (GIBCO, catalog number F4135) at 37° C. in a humidified 5% CO2 incubator. For the mechanistic studies, cells were seeded into tissue culture treated 6-well plates (Corning 3506) at a densities of 400k, 400k, 100K and 50k cells per well for HCC827, NCI-H1975, HCC4006 and PC-9 (having mutation exon 19 deletion) respectively, and allowed to attach overnight. […] After 72 hours of treatment, cells were lysed in 100 μl per well RIPA buffer (Sigma R0278) containing protease inhibitor cocktail (Sigma P8340), phosphatase inhibitor cocktail 2(Sigma P5726) and phosphatase inhibitor cocktail 3 (Sigma P0044). Cells were lysed on ice for 10 minutes, with scraping using a Cell Lifter (Corning 3008). Lysates were then micro-centrifuged at 14000rpm in an Eppendorf 5417R micro-centrifuge at 4° C.

[5] = tested on: EGFR-mutant NSCLC; conditions: 100 mg daily versus 150 mg daily, previous study; cited from earlier work
[6] = tested on: Epidermal Growth Factor Receptor (EGFR); conditions: L858R, exl9del, T790M versus WT; cited from earlier work
[7] = tested on: NCI-H1975 tumors (EGFR L858R, T790M); assay: In vivo efficacy study, NCI-H1975 xenograft tumor volume; parameters: species or system mouse; conditions: Compound A 10 or 30 mg/kg p.o. qd, Compound B 80 mg/kg free base p.o. qd
Procedure: The tumor cells were cultured in tissue culture flasks in a humidified incubator at 37° C., in an atmosphere of 5% CO2 and 95% air.

[8] = single agent ribociclib, 3 weeks on/1 week off; cited from earlier work
[9] = tested on: CYP3A4/5; conditions: cited from earlier work
[10] = tested on: phospho-Rb (Rb S807/811); assay: Western blot of phospho-Rb after 72 hours of treatment; format: cell-based; conditions: PC-14, NCI-H1975, HCC827, HCC4006, immunoblot
Procedure: Several EGFR mutant NSCLC cell lines were treated for 72 hours with the EGF816 and LEE011 combination at different concentrations as follows. NCI-H1975 (having mutations L858R, T790M), PC-14 (having mutations ex 19 del or exon 19 deletion), HCC827 (having mutation exl9del) and HCC4006 (having mutation exl9del) cells were cultured in RPMI-1640 growth medium (ATCC, catalog number 20-2001), supplemented with 10% fetal bovine serum (GIBCO, catalog number F4135) at 37° C. in a humidified 5% CO2 incubator. For the mechanistic studies, cells were seeded into tissue culture treated 6-well plates (Corning 3506) at a densities of 400k, 400k, 100K and 50k cells per well for HCC827, NCI-H1975, HCC4006 and PC-9 (having mutation exon 19 deletion) respectively, and allowed to attach overnight. The cells were then exposed to a 3×3 matrix combination treatment of EGF816 and LEE011, at concentrations of 0, 0.12, 0.333 μM EGF816 vs. 0, 0.312, 2.5 μM LEE011. […]
Lysate' total protein content was determined by BCA assay (Pierce 23227), following the manufacturer's instructions, and samples were prepared for a western blot using Invitrogen LDS Sample Buffer (NP0007)) containing 200 mM DTT, boiled at 95° C. for 10 minutes, micro-centrifuged and 20 μg total protein loaded per well. […]

| Compound | antitumor activity in patients [1] | regrowth of cells (confluence as surrogate for cell number) ([2]; EGF816 300nM alone or with LEE011 1000 nM) | apoptosis and cell cycle arrest ([2]; EGF816 300nM, PC9, HCC827, HCC4006, MGH707) | tolerability, body weight ([3]; efficacious doses, xenograft models) | anti-tumor efficacy in xenograft models ([3]; several xenograft models) | EGFR phosphorylation (EGFR Y1068) [4] | rates of rash and diarrhoea [5] | selectivity for mutant EGFR over wild type EGFR [6] | tumor volume changes over time [7] | MTD [8] | CYP3A4/5 inhibition [9] | Rb phosphorylation (Rb S807/811) [10] |
| --- | --- | --- | --- | --- | --- | --- | --- | --- | --- | --- | --- | --- |
| Cc1cc(C(=O)Nc2nc3cccc(Cl)c3n2[C@@H]2CCCCN(C(=O)/C=C/CN(C)C)C2)ccn1 [EGF816, (R,E)-N-(7-chloro-1-(1-(4-(dimethylamino)but-2-enoyl)azepan-3-yl)-1H-benzo[d]imidazol-2-yl)-2-methylisonicotinamide] | durable antitumor activity | begin to slowly regrow | varying degrees of apoptosis and cell cycle arrest | well tolerated with no body weight loss observed at efficacious doses | Dose-dependent anti-tumor efficacy | inhibited in a dose dependent manner across all cell lines | lower rates of rash and diarrhoea were observed at 100 mg daily | selectively inhibits activating and acquired resistance mutants (L858R, exl9del and T790M), while sparing wild type (WT) EGFR | significant tumor regressions, which increased at higher doses |  |  |  |
| CN(C)C(=O)c1cc2cnc(Nc3ccc(N4CCNCC4)cn3)nc2n1C1CCCC1 [LEE011, 7-cyclopentyl-2-(5-piperazin-1-yl-pyridin-2-ylamino)-7H-pyrrolo[2,3-d]pyrimidine-6-carboxylic acid dimethylamide] |  |  |  |  |  |  |  |  | no single agent activity | 900 mg qd | inhibitor of CYP3A4/5 | inhibited by LEE011 single agent in 3 out of 4 cell lines |
